Test results: ChEMBL document CHEMBL1201862, “PubChem BioAssay data set” (2004)
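Test compounds were applied to cells in 96-well plates for 48 hours at 5 doses. GI50 marks 50% less growth.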 Activity calls are given as the source filed them. Cut-off read from the data, not from the text of the source: active = GI50 up to about 1.1 µM and inactive = higher.

How the values were obtained:
Assay in all cases: inhibition of tumour cell growth, NCI panel, 48 h
[1] = system: A549
[2] = system: MOLT-4
[3] = system: LOX IMVI
[4] = system: SK-MEL-5
[5] = system: BT-549
[6] = system: TK-10
[7] = system: UACC-257
[8] = system: K562
[9] = system: NCI/ADR-RES
[10] = system: MDA-N
[11] = system: SK-OV-3
[12] = system: OVCAR-8
[13] = system: RXF 393
[14] = system: SF-268
[15] = system: OVCAR-3
[16] = system: MDA-MB-435
[17] = system: UO-31
[18] = system: HL-60
[19] = system: CCRF-CEM
[20] = system: NCI-H23

Measured: GI50

C=CCOc1ccccc1/N=N/C(C#N)=N\Nc1ccccc1OCC=C
inactive: [1] > 100 µM | [2] > 100 µM | [3] > 100 µM | [4] > 100 µM | [5] > 100 µM | [6] > 100 µM | [7] > 100 µM | [8] > 100 µM | [9] > 100 µM | [10] 27.2 µM | [11] > 100 µM | [12] > 100 µM | [13] > 100 µM | [14] > 100 µM | [15] > 100 µM | [16] 41.9 µM | [17] > 100 µM | [18] > 100 µM | [19] > 100 µM | [20] > 100 µM

CCC(=O)N1NC(=O)C(CC)(CC)C1=O
inactive: [1] > 100 µM | [2] > 100 µM | [3] > 100 µM | [4] > 100 µM | [5] > 100 µM | [6] > 100 µM | [7] > 100 µM | [8] > 100 µM | [9] > 100 µM | [10] > 100 µM | [11] > 100 µM | [12] > 100 µM | [13] > 100 µM | [14] > 100 µM | [15] > 100 µM | [16] > 100 µM | [17] > 100 µM | [18] > 100 µM | [19] > 100 µM | [20] > 100 µM
